From publication PMC9127750, “Structure-based design of CDC42 effector interaction inhibitors for the treatment of cancer” (Cell reports, 2022)
“And” between values parts separate entries of the source, which are not always exact repeats. Equal values may be shown once.

Test system: WM3248 melanoma cells, 486 antibodies
Experiment: Reverse phase protein arrays (RPPA)
Type: cell-based, Human
Conditions: normalized to 0
Description: Pellets were snap frozen in liquid nitrogen and shipped to MD Anderson Cancer Center core RPPA facility for RPPA analysis (Table S5). Three biological replicates for each sample were generated.
Nomenclatures on the RPPA heatmaps: name_of_antibody.species_of_antibody.status_of_antibody. V - antibody validated; C - validation of antibody in progress; Q - antibody nonspecific; E – under evaluation; antibodies raised in M - mouse, G - goat, R - rabbit, or T - rat.

CN(C)c1cccc(Nc2cc(-c3ccccc3)nc(C3CCNCC3)n2)c1 [ARN22089, N1,N1-dimethyl-N3-(6-phenyl-2-(piperidin-4-yl)pyrimidin-4-yl)benzene-1,3-diamine]
EMA.M.C Norm_5 Average (5, average): 0.850 | ENY2.M.C Norm_5 Average (5, average): 0.965 | ER.a.R.V Norm_5 Average (5, average): 1.001 | ERCC1.R.C Norm_5 Average (5, average): 0.948 | ERCC5.R.C Norm_5 Average (5, average): 1.084 | ERRalpha.R.V Norm_5 Average (5, average): 0.950 | EVI1.R.V Norm_5 Average (5, average): 0.922 | Elk1_pS383.R.C Norm_5 Average (5, average): 1.032 | Enolase.1.R.V Norm_5 Average (5, average): 1.052 | Enolase.2.R.V Norm_5 Average (5, average): 0.966 | EphA2.R.V Norm_5 Average (5, average): 0.884 | EphA2_pS897.R.C Norm_5 Average (5, average): 0.843 | EphA2_pY588.R.C Norm_5 Average (5, average): 0.929 | Erk5.R.V Norm_5 Average (5, average): 1.026 | FABP5.R.C Norm_5 Average (5, average): 0.959 | FAK.R.C Norm_5 Average (5, average): 0.977 | FAK_pY397.R.V Norm_5 Average (5, average): 0.931 | FANCD2.R.V Norm_5 Average (5, average): 0.930 | FASN.R.V Norm_5 Average (5, average): 1.111 | FGF.basic.R.C Norm_5 Average (5, average): 0.987 | FN14.R.C Norm_5 Average (5, average): 1.118 | FOXM1.R.V Norm_5 Average (5, average): 0.915 | FOXO3.R.V Norm_5 Average (5, average): 1.012 | FRS2.alpha_pY196.R.V Norm_5 Average (5, average): 0.996 | FTO.R.V Norm_5 Average (5, average): 1.020 | Fibronectin.R.V Norm_5 Average (5, average): 1.193 | FoxO3a_pS318_S321.R.C Norm_5 Average (5, average): 0.972 | G6PD.R.V Norm_5 Average (5, average): 0.950 | GATA3.M.V Norm_5 Average (5, average): 1.077 | GATA6.R.V Norm_5 Average (5, average): 0.971 | GCLM.R.V Norm_5 Average (5, average): 0.967 | GCN5L2.R.V Norm_5 Average (5, average): 1.021 | GGPS1.M.V Norm_5 Average (5, average): 0.977 | GRB2.R.V Norm_5 Average (5, average): 1.022 | GRB7.R.V Norm_5 Average (5, average): 0.976 | GSK.3a.b.M.V Norm_5 Average (5, average): 0.937 | GSK.3a.b_pS21_S9.R.V Norm_5 Average (5, average): 1.111 | Gab2.R.V Norm_5 Average (5, average): 1.100 | Gli1.R.C Norm_5 Average (5, average): 0.999 | Gli3.R.C Norm_5 Average (5, average): 1.056 | Glucocorticoid.Receptor.R.V Norm_5 Average (5, average): 1.053 | Glutamate.D1.2.R.V Norm_5 Average (5, average): 0.990 | Grp75.R.C Norm_5 Average (5, average): 1.021 | Gys.R.V Norm_5 Average (5, average): 0.987 | Gys_pS641.R.V Norm_5 Average (5, average): 0.978 | H2AX_pS139.R.C Norm_5 Average (5, average): 1.026 | H2AX_pS140.M.C Norm_5 Average (5, average): 0.967 | HER2.M.V Norm_5 Average (5, average): 0.971 | HER2_pY1248.R.V Norm_5 Average (5, average): 1.023 | HER3.R.V Norm_5 Average (5, average): 0.924 | HER3_pY1289.R.C Norm_5 Average (5, average): 1.060 | HES1.R.V Norm_5 Average (5, average): 1.168 | eEF2.R.C Norm_5 Average (5, average): 1.217 | eEF2K.R.V Norm_5 Average (5, average): 1.024 | eIF4E.R.V Norm_5 Average (5, average): 1.028 | eIF4E_pS209.R.V Norm_5 Average (5, average): 0.945 | DNMT1.R.V Norm_5 (5, replicates 1-3): 0.988 and 0.998 and 1.098 | DRP1.R.V Norm_5 (5, replicates 1-3): 0.998 and 1.001 | DUSP4.R.V Norm_5 (5, replicates 1-3): 1.082 and 1.118 and 1.119 | DUSP6.R.C Norm_5 (5, replicates 1-3): 1.285 and 1.005 and 1.269 | DYRK1B.R.C Norm_5 (5, replicates 1-3): 0.880 and 0.877 and 1.004 | Dvl3.R.V Norm_5 (5, replicates 1-3): 0.981 and 1.018 and 0.968 | E2F1.R.V Norm_5 (5, replicates 1-3): 0.990 and 0.958 and 0.964 | E.Cadherin.R.V Norm_5 (5, replicates 1-3): 0.812 and 0.783 and 0.958 | EGFR.R.V Norm_5 (5, replicates 1-3): 0.998 and 1.139 and 0.952 | EGFR_pY1068.R.C Norm_5 (5, replicates 1-3): 0.901 and 0.903 and 1.000 | EGFR_pY1173.R.V Norm_5 (5, replicates 1-3): 1.024 and 1.026 and 1.016 | EMA.M.C Norm_5 (5, replicates 1-3): 0.673 and 0.895 and 0.983 | ENY2.M.C Norm_5 (5, replicates 1-3): 0.935 and 1.052 and 0.908 | ER.a.R.V Norm_5 (5, replicates 1-3): 0.980 and 1.004 and 1.018 | ER.a_pS118.R.V Norm_5 (5, replicates 1-3): 1.247 | ERCC1.R.C Norm_5 (5, replicates 1-3): 0.895 and 0.962 and 0.988 | ERCC5.R.C Norm_5 (5, replicates 1-3): 1.145 | ERRalpha.R.V Norm_5 (5, replicates 1-3): 0.932 and 0.933 and 0.985 | EVI1.R.V Norm_5 (5, replicates 1-3): 0.871 and 0.956 and 0.940 | Elk1_pS383.R.C Norm_5 (5, replicates 1-3): 1.029 | Enolase.1.R.V Norm_5 (5, replicates 1-3): 1.006 and 1.195 and 0.954 | Enolase.2.R.V Norm_5 (5, replicates 1-3): 0.936 and 1.012 | EphA2.R.V Norm_5 (5, replicates 1-3): 0.843 and 0.933 and 0.875 | EphA2_pS897.R.C Norm_5 (5, replicates 1-3): 0.767 and 0.950 and 0.814 | EphA2_pY588.R.C Norm_5 (5, replicates 1-3): 0.881 and 0.946 and 0.960 | Erk5.R.V Norm_5 (5, replicates 1-3): 0.987 and 1.054 | Ets.1.R.V Norm_5 (5, replicates 1-3): 1.139 and 1.226 and 0.851 | FABP5.R.C Norm_5 (5, replicates 1-3): 1.017 and 1.210 and 0.650 | FAK.R.C Norm_5 (5, replicates 1-3): 0.898 and 1.113 and 0.922 | FAK_pY397.R.V Norm_5 (5, replicates 1-3): 0.881 and 0.907 and 1.006 | FANCD2.R.V Norm_5 (5, replicates 1-3): 0.905 and 0.913 and 0.972 | FASN.R.V Norm_5 (5, replicates 1-3): 1.237 and 1.011 and 1.085 | FGF.basic.R.C Norm_5 (5, replicates 1-3): 0.849 | FN14.R.C Norm_5 (5, replicates 1-3): 1.117 and 1.165 | FOXM1.R.V Norm_5 (5, replicates 1-3): 0.776 and 0.924 and 1.046 | FOXO3.R.V Norm_5 (5, replicates 1-3): 0.964 and 1.056 and 1.017 | FRS2.alpha_pY196.R.V Norm_5 (5, replicates 1-3): 0.883 and 1.011 | FTO.R.V Norm_5 (5, replicates 1-3): 1.133 and 0.883 | Fibronectin.R.V Norm_5 (5, replicates 1-3): 1.256 and 1.230 | FoxO3a_pS318_S321.R.C Norm_5 (5, replicates 1-3): 0.972 and 1.006 | G6PD.R.V Norm_5 (5, replicates 1-3): 0.921 and 1.016 and 0.913 | GATA3.M.V Norm_5 (5, replicates 1-3): 1.233 and 0.961 | GATA6.R.V Norm_5 (5, replicates 1-3): 0.980 and 0.952 and 0.979 | GCLC.R.C Norm_5 (5, replicates 1-3): 1.128 and 0.940 | GCLM.R.V Norm_5 (5, replicates 1-3): 0.953 and 1.003 | GCN5L2.R.V Norm_5 (5, replicates 1-3): 0.975 and 1.052 | GGPS1.M.V Norm_5 (5, replicates 1-3): 0.942 | GRB2.R.V Norm_5 (5, replicates 1-3): 0.966 and 1.023 and 1.076 | GRB7.R.V Norm_5 (5, replicates 1-3): 1.030 and 0.936 and 0.962 | GSK.3B.R.C Norm_5 (5, replicates 1-3): 0.980 and 1.031 and 1.125 | GSK.3a.b.M.V Norm_5 (5, replicates 1-3): 1.010 and 0.971 and 0.830 | GSK.3a.b_pS21_S9.R.V Norm_5 (5, replicates 1-3): 1.277 and 1.230 | Gab2.R.V Norm_5 (5, replicates 1-3): 1.236 and 1.059 and 1.006 | Gli1.R.C Norm_5 (5, replicates 1-3): 0.936 and 0.961 and 1.099 | Gli3.R.C Norm_5 (5, replicates 1-3): 1.128 and 1.124 and 0.916 | Glucocorticoid.Receptor.R.V Norm_5 (5, replicates 1-3): 1.063 and 1.061 and 1.034 | Glutamate.D1.2.R.V Norm_5 (5, replicates 1-3): 1.128 and 0.932 | Glutaminase.R.C Norm_5 (5, replicates 1-3): 1.249 and 0.891 | Granzyme.B.R.V Norm_5 (5, replicates 1-3): 1.216 and 0.936 | Grp75.R.C Norm_5 (5, replicates 1-3): 0.988 and 1.124 and 0.950 | Gys.R.V Norm_5 (5, replicates 1-3): 0.964 and 0.981 and 1.016 | Gys_pS641.R.V Norm_5 (5, replicates 1-3): 1.014 and 0.854 | H2AX_pS139.R.C Norm_5 (5, replicates 1-3): 1.023 and 1.013 | H2AX_pS140.M.C Norm_5 (5, replicates 1-3): 0.966 and 1.110 and 0.827 | HER2.M.V Norm_5 (5, replicates 1-3): 0.993 and 0.940 and 0.980 | HER2_pY1248.R.V Norm_5 (5, replicates 1-3): 0.876 and 1.016 | HER3.R.V Norm_5 (5, replicates 1-3): 0.898 and 0.946 and 0.928 | HER3_pY1289.R.C Norm_5 (5, replicates 1-3): 1.034 and 1.212 and 0.933 | HES1.R.V Norm_5 (5, replicates 1-3): 1.299 and 1.047 and 1.158 | Heregulin.R.V Norm_5 (5, replicates 1-3): 1.014 and 1.131 and 1.059 | eEF2.R.C Norm_5 (5, replicates 1-3): 1.519 and 1.622 and 0.509 | eEF2K.R.V Norm_5 (5, replicates 1-3): 1.078 and 1.168 | eIF4E.R.V Norm_5 (5, replicates 1-3): 0.986 and 1.010 | eIF4E_pS209.R.V Norm_5 (5, replicates 1-3): 0.988 and 0.981 | eIF4G.R.C Norm_5 (5, replicates 1-3): 1.060 and 1.058 and 1.164 | DNMT1.R.V Norm_10 Average (10, average): 1.056 | DRP1.R.V Norm_10 Average (10, average): 0.998 | DUSP4.R.V Norm_10 Average (10, average): 0.891 | DUSP6.R.C Norm_10 Average (10, average): 1.050 | DYRK1B.R.C Norm_10 Average (10, average): 0.948 | Dvl3.R.V Norm_10 Average (10, average): 0.962 | E2F1.R.V Norm_10 Average (10, average): 1.083 | E.Cadherin.R.V Norm_10 Average (10, average): 0.939 | EGFR.R.V Norm_10 Average (10, average): 0.975 | EGFR_pY1068.R.C Norm_10 Average (10, average): 0.957 | EMA.M.C Norm_10 Average (10, average): 0.953 | ER.a.R.V Norm_10 Average (10, average): 0.921 | ERCC5.R.C Norm_10 Average (10, average): 0.962 | ERRalpha.R.V Norm_10 Average (10, average): 1.014 | EVI1.R.V Norm_10 Average (10, average): 1.011 | Elk1_pS383.R.C Norm_10 Average (10, average): 0.998 | Enolase.1.R.V Norm_10 Average (10, average): 1.160 | EphA2.R.V Norm_10 Average (10, average): 0.919 | EphA2_pS897.R.C Norm_10 Average (10, average): 0.866 | EphA2_pY588.R.C Norm_10 Average (10, average): 0.941 | Erk5.R.V Norm_10 Average (10, average): 0.877 | Ets.1.R.V Norm_10 Average (10, average): 1.306 | FABP5.R.C Norm_10 Average (10, average): 1.237 | FAK.R.C Norm_10 Average (10, average): 0.954 | FANCD2.R.V Norm_10 Average (10, average): 0.930 | FASN.R.V Norm_10 Average (10, average): 0.962 | FGF.basic.R.C Norm_10 Average (10, average): 0.946 | FOXM1.R.V Norm_10 Average (10, average): 0.929 | FOXO3.R.V Norm_10 Average (10, average): 1.081 | FRS2.alpha_pY196.R.V Norm_10 Average (10, average): 1.373 | FTO.R.V Norm_10 Average (10, average): 1.099 | Fibronectin.R.V Norm_10 Average (10, average): 1.015
